Measured values taken from ChEMBL document CHEMBL2150958, “Tuned-Affinity Bivalent Ligands for the Characterization of Opioid Receptor Heteromers” (ACS Med Chem Lett, 2012).

How the values were obtained:
Mu-type opioid receptor = Mu-type opioid receptor (Mus musculus, UniProt P42866); test: Displacement of [3H]-DAMGO from mouse MOR expressed in HEK293 cells; type: cell-based
[1] = target: T1, Opioid receptors; mu and delta (Mus musculus, UniProt P42866+P32300); test: Displacement of [3H]-DPDPE from mouse MOR/DOR expressed in HEK293 cells; type: cell-based
Mus musculus = species: Mus musculus; test: Selectivity ratio of Ki for mouse DOR to Ki for mouse MOR/DOR
[2] = target: Delta-type opioid receptor (Mus musculus, UniProt P32300); test: Displacement of [3H]-DPDPE from mouse DOR expressed in HEK293 cells; type: cell-based
Delta-type opioid receptor, sequence (P32300 whole entry): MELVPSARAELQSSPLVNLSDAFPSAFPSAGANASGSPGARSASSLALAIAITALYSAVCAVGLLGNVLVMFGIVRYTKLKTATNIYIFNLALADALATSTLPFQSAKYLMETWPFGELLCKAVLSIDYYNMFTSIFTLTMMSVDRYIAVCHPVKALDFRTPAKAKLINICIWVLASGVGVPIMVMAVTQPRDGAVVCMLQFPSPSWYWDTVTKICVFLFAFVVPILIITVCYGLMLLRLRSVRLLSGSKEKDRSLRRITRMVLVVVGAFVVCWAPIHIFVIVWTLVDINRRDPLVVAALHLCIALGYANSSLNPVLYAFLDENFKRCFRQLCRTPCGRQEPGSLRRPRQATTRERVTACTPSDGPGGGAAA

[3] = target: T1, Opioid receptors; mu and delta; test: Displacement of [3H]-DAMGO from mouse MOR/DOR expressed in HEK293 cells; type: cell-based

Mu-type opioid receptor, sequence (P42866 whole entry): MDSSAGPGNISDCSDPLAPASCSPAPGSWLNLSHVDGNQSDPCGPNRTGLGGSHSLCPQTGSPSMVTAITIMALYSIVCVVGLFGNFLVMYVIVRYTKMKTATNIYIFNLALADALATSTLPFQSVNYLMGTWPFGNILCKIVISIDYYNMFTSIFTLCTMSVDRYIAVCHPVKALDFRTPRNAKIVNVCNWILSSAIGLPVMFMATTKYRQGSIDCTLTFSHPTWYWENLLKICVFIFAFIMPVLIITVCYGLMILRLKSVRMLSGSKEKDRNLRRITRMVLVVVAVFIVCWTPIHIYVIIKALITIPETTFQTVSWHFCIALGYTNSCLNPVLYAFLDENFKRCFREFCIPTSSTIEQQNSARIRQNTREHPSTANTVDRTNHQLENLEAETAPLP

## CCN(CC)C(=O)c1ccc(C(=C2CCNCC2)c2c(C)cc(NC(=O)COCC(=O)NCCCCCNC(=O)COCC(=O)N[C@@H]3CC[C@@]4(O)[C@H]5Cc6ccc(O)c7c6[C@@]4(CCN5CC4CC4)[C@H]3O7)cc2C)cc1.Cl
Mu-type opioid receptor
  Ki: < 1 nM
[1]
  pKi: 8.6
Mus musculus
  Ratio Ki: 10
[2]
  Ki: 20 nM
[3]
  pKi: > 9

## CNC(=O)COCC(=O)NCCCCCNC(=O)COCC(=O)N[C@@H]1CC[C@@]2(O)[C@H]3Cc4ccc(O)c5c4[C@@]2(CCN3CC2CC2)[C@H]1O5
Mu-type opioid receptor
  Ki: 0.324 nM
[1]
  pKi: 7.79
[2]
  Ki: 30.9 nM
[3]
  pKi: 8.38

## CNC(=O)COCC(=O)NCCCCCNC(=O)COCC(=O)N[C@H]1CC[C@@]2(O)[C@H]3Cc4ccc(O)c5c4[C@@]2(CCN3C)[C@H]1O5
Mu-type opioid receptor
  Ki: 22.4 nM
[3]
  pKi: 6.9

## Nc1cccc2c3c([nH]c12)[C@@H]1Oc2c(OCCc4ccccc4)ccc4c2[C@@]12CCN(CC1CC1)[C@H](C4)[C@]2(O)C3
Mu-type opioid receptor
  Ki: 120 nM
[1]
  pKi: 7.46
[2]
  Ki: 91.2 nM
[3]
  pKi: 6.94

## CCN(CC)C(=O)c1ccc(C(=C2CCNCC2)c2c(C)cc(NC(=O)COCC(=O)NCCCCCNC(=O)COCC(=O)NC)cc2C)cc1.Cl
Mu-type opioid receptor
  Ki: 550 nM
[1]
  pKi: 5.78
[2]
  Ki: 2880 nM
[3]
  pKi: 5.92

## Cl.Oc1ccc2c3c1O[C@H]1c4[nH]c5ccccc5c4C[C@@]4(O)[C@@H](C2)N(CC2CC2)CC[C@]314 [NALTRINDOLE HYDROCHLORIDE]
Mu-type opioid receptor
  Ki: 16.6 nM
[1]
  pKi: 8.26
[2]
  Ki: 2.63 nM
[3]
  pKi: 8.46

## CN1CC[C@]23c4c5ccc(O)c4O[C@H]2[C@@H](NC(=O)COCC(=O)NCCCCCNC(=O)COCC(=O)Nc2cccc4c6c([nH]c24)[C@@H]2Oc4c(OCCc7ccccc7)ccc7c4[C@@]24CCN(CC2CC2)[C@H](C7)[C@]4(O)C6)CC[C@@]3(O)[C@H]1C5.Cl
Mu-type opioid receptor
  Ki: 9.77 nM
[1]
  pKi: 7.34
[2]
  Ki: 204 nM
[3]
  pKi: 8.21
